According to paper PMC8210616, “Adjuvant-free peptide vaccine targeting Clec9a on dendritic cells can induce robust antitumor immune response through Syk/IL-21 axis” (Theranostics, 2021):
“Also recorded” adds a separate entry of the source. Ends that are not written are not given here. Peptide text beside a SMILES is read from it. * marks the point of attachment. biotin = biotin on the C-terminal Lys, O=C1N[C@H]2[C@H](CS[C@H]2CCCCC(=O)*)N1; Biotin = O=C1N[C@H]2[C@H](CS[C@H]2CCCCC(=O)*)N1

Legend:
[1] = target: T1, mouse Clec9a (mClec9a) protein (Mus musculus, UniProt Q8BRU4); assay: Binding affinity measurement by MST; conditions: ratio of MST KD values
T1 sequence (Q8BRU4 106-238 limits assumed): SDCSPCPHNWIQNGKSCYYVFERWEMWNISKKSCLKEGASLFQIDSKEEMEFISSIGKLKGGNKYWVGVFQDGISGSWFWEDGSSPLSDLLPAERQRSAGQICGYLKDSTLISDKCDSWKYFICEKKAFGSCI
Experimental: The affinity of the peptide to mouse Clec9a (mClec9a) protein was detected by microscale thermophoresis (MST) (NanoTemper Technologies GmhH, Germany). Briefly, mClec9a protein (Sino Biological, Beijing, China) was labeled with Red-NHS647 dye (NanoTemper Technologies GmhH, Germany), and the successfully labeled protein was used for affinity measurements. Peptides were diluted into serial concentrations with MST buffer. Equal volume of dye-labeled mClec9a protein was incubated with peptides at room temperature, the mixture was loaded onto capillaries (NanoTemper Technologies GmhH, Germany) and immediately analyzed by an MST instrument. The data were estimated by MO. Affinity Analysis v2.2.4.

mClec9a = target: T2, mClec9a (Mus musculus, UniProt Q8BRU4); assay: Peptide binding assay by flow cytometry, mClec9a-transfected HEK-293T cells; conditions: biotinylated peptides 100 µM, 30 min on ice, SA-PE
T2 construct: expressed in transfected cells; host or cells: HEK-293T
T2 sequence (Q8BRU4 1-264 isoform Q8BRU4-4): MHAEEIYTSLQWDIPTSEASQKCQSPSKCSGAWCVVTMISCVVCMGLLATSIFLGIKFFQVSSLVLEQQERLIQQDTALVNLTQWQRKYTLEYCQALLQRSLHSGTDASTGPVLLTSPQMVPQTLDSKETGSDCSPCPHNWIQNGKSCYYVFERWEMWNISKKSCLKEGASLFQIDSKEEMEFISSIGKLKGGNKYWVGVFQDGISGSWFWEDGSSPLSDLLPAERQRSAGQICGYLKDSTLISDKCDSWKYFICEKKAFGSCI
Experimental: (§1) HEK-293T cells were transiently transfected with pIRES2-EGFP-mClec9a plasmid, or the mock pIRES2-EGFP plasmid for binding assay. Cells (3 × 10^5) were incubated with rat serum to block Fc receptors and different biotinylated peptides for 30 min on ice. After washing three times, cells were stained with streptavidin (SA)-PE for 30 min on ice, and the samples were analyzed for binding affinity by a flow cytometry after washing once.

HEK-293T^mock cells = assay: Peptide binding assay by flow cytometry, mock-transfected HEK-293T cells; conditions: biotinylated peptides 100 µM, 30 min on ice, SA-PE
Experimental: as §1

[2] = system: spleen cDC1s (CD45^+CD11c^+XCR1^+); assay: Uptake of biotinylated peptide by spleen cDC1s in vitro; type: cell-based; conditions: mouse splenocytes, 6.25 µM biotinylated peptide 30 min on ice, then 2 h at 37 °C, SA-PE flow cytometry
Experimental: Mouse splenocytes (5 × 10^5) were incubated with biotinylated GA peptide and CBP-12 for 30 min on ice, and then cells were washed three times and cultured for 2 h at 37 °C. Spleen cells were stained with anti-mouse CD45-FITC (30-F11), anti-mouse CD11c-PerCP-efluor 450 (N418), anti-mouse XCR1-BV650 (ZET) and anti-mouse CD11b-APC (M1/70). Then cells were fixed, permeabilized and further stained with SA-PE for peptide uptake analysis.

spleen cDC1s = assay: Phagocytosis / targeting of cDC1s in vivo; set-up: species or system mouse; conditions: 100 μg biotinylated peptide s.c., sacrificed after 15 min, n = 3 per group
Text: Based on our previous study, Asp248 and Trp250 were two key residues for Clec9a to bind with WH peptide. In order to improve the binding of WH peptide to Clec9a, a silico residue scanning approach was applied to design high affinity WH mutants. The mutants were predicted by using the module of Residue Scanning mutates function, MOE (Molecular Operating Environments) software (2018 version, Chemical Computing Group Inc, Montreal, Quebec, Canada). Two hundred and twenty peptides were obtained, among which 15 peptides were selected and synthesized for experimental identification.
For phagocytosis in vivo, 6-week-old C57BL/6 mice were s.c. vaccinated with 100 μg biotinylated peptide. After 15 min of immunization, mice were sacrificed. Splenocytes were stained with anti-mouse CD45-FITC (30-F11), anti-mouse CD11c-PerCP-efluor […]
were fixed, permeabilized and further stained with SA-PE for CBP-12 targeting […]
For phagocytosis in vitro, FL-DCs were incubated with biotinylated GA peptide and CBP-12 for 30 min on ice, then cells were washed three times and culture for 2 h at 37 °C. FL-DCs were stained with anti-mouse CD45-FITC (30-F11), anti-mouse CD11c-PerCP-efluor 450 (N418), anti-mouse XCR1-BV650 (ZET) and CD11b-APC (M1/70) to mark cDC1s and cDC2s. Then FL-DCs were fixed, permeabilized and […]

FL-DCs = assay: Uptake of peptide^biotin-SA-PE by FL-DCs, confocal microscopy; type: cell-based, mouse; conditions: for effect of endocytosis inhibitor on uptake of CBP-12 by FL-DCs: pre-incubation 1 h with inhibitor, then 50 μM CBP-12^biotin-SA-PE 2 h at 37 °C
Experimental: Biotinylated peptide was mixed with SA-PE in a molar ratio of 1: 3 to obtain SA-PE labeled peptide (peptide^biotin-SA-PE). FL-DCs from wild type (WT) or Clec9a^-/- mice was harvested and washed twice with PBS before use. […] After washing, cells were incubated with Hoechst 33342 (Beyotime Biotechnology, Beijing, China) for 1 h to stain the nucleus. Cells were analyzed with a confocal laser scanning microscopy (Leica TCS SP8, Wetzlar, Germany).

[3] = In vitro enzyme degradation of peptide in mouse serum; type: in vitro ADME; conditions: 10% (V/V) mouse serum saline solution, peptide 1 mM, 37 °C, sampled 0, 0.25, 0.5, 1 and 2 h, residual peptide by RP-HPLC
Experimental: further stained with SA-PE. CBP-12 uptake by cDC1s and cDC2s were tested with […]
In vitro enzyme degradation of peptide
Peripheral blood of mice was stand at room temperature for 1 h, centrifuged for 10 min and then the supernatant was acquired. The peptide (1 mM) was added into 10% (V/V) serum saline solution and incubated for 2 h at 37 ℃. The samples taken at different time points were added 90% (V/V) acetonitrile-glacial acetic acid mixture and centrifuged for 15 min, then the supernatants were collected. The content of the residual peptide in samples was analyzed at 0 h, 0.25 h, 0.5 h, 1 h and 2 h by […]
CBP-12-OVA targeting to Clec9a together with adjuvant treated tumor model C57BL/6 or Clec9a−/− mice were s.c. injected with 2 × 10^5 B16-OVA cells. Three days after the tumor implantation, the mice were treated weekly for total of three times, with either 100 μg peptide or normal saline and 30 μg CpG ODN 1826 as adjuvant.
Then the mice were sacrificed after five days of the last injection.
Animal immunization and ex vitro CTL priming without adjuvant
For animal immunization and ex vivo CTL priming, female C57BL/6 mice of 6 -8 weeks were immunized with 20 μg OVA257–264, GA-OVA, CBP-12-OVA, or normal saline s.c. injected once a week for total of three times. Five days after the last

[4] = system: IL-21 in cDC1s (CD11c^+XCR1^+); assay: Intracellular cytokine staining for IL-21 in FL-DCs; type: cell-based, mouse
Experimental: FL-DCs were incubated with 100 μg/mL OVA257-264, GA-OVA, CBP-12-OVA or PBS and protein transport inhibitor cocktail at 37 °C for 6 h. For Syk phosphorylation inhibition assay, FL-DCs were incubated with 2.5 μM R406 (MCE, New Jersey, USA) for 1 h and then cultured with 100 μg/mL CBP-12-OVA and protein transport inhibitor cocktail at 37 °C for 6 h. IL-21 positive frequency was detected by ICS. R406 is an ATP-competitive Syk kinase inhibitor [26]. Cells stained with anti-mouse-CD11c-APC (N418), anti-mouse/rat XCR1-Brilliant Violet 650™ (ZET) and anti-mouse-IL-21-PE (FFA21) or Rat IgG2a-PE kappa Isotype Control (eBR2a) for IL-21 production were analyzed by a flow cytometry.

human Clec9a = human Clec9a (Homo sapiens, UniProt Q6UXN8); assay: Binding to human Clec9a (data not shown)
Chain of human Clec9a (Q6UXN8 whole entry): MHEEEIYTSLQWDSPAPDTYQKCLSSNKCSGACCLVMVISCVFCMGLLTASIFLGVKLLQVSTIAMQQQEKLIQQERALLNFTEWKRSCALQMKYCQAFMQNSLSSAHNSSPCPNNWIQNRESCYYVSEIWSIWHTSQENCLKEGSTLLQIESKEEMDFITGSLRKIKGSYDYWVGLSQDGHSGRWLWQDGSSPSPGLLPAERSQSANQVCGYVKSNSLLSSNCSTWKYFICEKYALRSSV

[5] = target: mouse Clec9a (mClec9a) protein (mouse) (UniProt Q8BRU4); assay: MST; mClec9a protein labeled with Red-NHS647 dye; peptides in serial dilution in MST buffer, room temperature; MO. Affinity Analysis v2.2.4
[6] = 50 µM peptide^biotin-SA-PE, 2 h, 37 °C, confocal

Question: Which “affinity for mClec9a relative to WH peptide” value [1] does the source give for CC(C)[C@H](NC(=O)[C@H](CO)NC(=O)[C@H](CO)NC(=O)[C@H](Cc1c[nH]cn1)NC(=O)[C@H](Cc1ccccc1)NC(=O)[C@H](CCCNC(=N)N)NC(=O)[C@@H]1CCCN1C(=O)[C@@H](N)Cc1c[nH]c2ccccc12)C(=O)N[C@@H](CCCNC(=N)N)C(=O)N[C@@H](Cc1c[nH]cn1)C(=O)N[C@H](C(=O)N[C@@H](Cc1c[nH]cn1)C(=O)NCC(=O)NCC(=O)NCC(=O)N[C@@H](CCCCNC(=O)CCCC[C@@H]1SC[C@@H]2NC(=O)N[C@@H]21)C(=O)O)[C@@H](C)O [CBP-12] (H-WPRFHSSVRHTHGGGK(Biotin)-OH; N-terminus and C-terminus assumed) here?
Answer: Its value is 37.2 fold.

Question: What about the “binding to mClec9a-overexpressing HEK-293T cells” value (mClec9a) of the same molecule?
Answer: Its value is “higher binding affinity than the other peptides”.

Question: What about the “binding to mock plasmid transfected HEK-293T cells” value (HEK-293T^mock cells) of the same molecule?
Answer: The value was “did not bind”.

Question: And the “uptake by spleen cDC1s in vitro” value [2]?
Answer: The value was “strong uptake”.

Question: What about the “targeting of cDC1s versus cDC2s in vivo” value (spleen cDC1s) of the same molecule?
Answer: The value was “could target to cDC1s but not cDC2s”.

Question: And the “fluorescence signal in FL-DCs derived from Clec9a^-/- mice” value (FL-DCs; [6])?
Answer: The value was “much lower”.

Question: What about the “fluorescence signal in FL-DCs of WT mice” value (FL-DCs; [6]) of the same molecule?
Answer: The value was “strong fluorescence signal”.

Question: And the “stability in mouse serum” value [3]?
Answer: Its value is “resists protease hydrolysis; also recorded: stable in mouse serum for 1 h”.

Question: And the “secretion of IL-21 from cDC1s, ICS” value ([4]; FL-DCs, 100 µg/mL peptide, 6 h, 37 °C)?
Answer: The value was “stimulated the secretion of IL-21 from cDC1s”.

Question: And the “binding to human Clec9a” value (human Clec9a)?
Answer: The value was “could bind”.

Question: With COc1cc(Nc2ncc(F)c(Nc3ccc4c(n3)NC(=O)C(C)(C)O4)n2)cc(OC)c1OC [R406, reference compound] as the molecule, how does the “effect on CBP-12-OVA induced IL-21 secretion from cDC1s” value ([4]; 2.5 µM R406 for 1 h, then 100 µg/mL CBP-12-OVA 6 h) read?
Answer: Its value is “suppress the secretion of IL-21”.

Question: For N=C(N)NC(=O)c1nc(Cl)c(N)nc1N [amiloride, reference compound], which “effect of endocytosis inhibitor on uptake of CBP-12 by FL-DCs” value (FL-DCs) is on record?
Answer: Its value is “inhibited”.

Question: With CN(C)CCCN1c2ccccc2Sc2ccc(Cl)cc21 [chlorpromazine, reference compound] as the molecule, how does the “effect of endocytosis inhibitor on uptake of CBP-12 by FL-DCs” value (FL-DCs) read?
Answer: The value was “inhibited”.

Question: Which Kd [5] does the source give for WPRFHSSVRHTHGGGK(biotin) [CBP-12^biotin (12-mer Clec9a binding peptide, …-GGG-K^biotin)] here?
Answer: Its Kd is 0.61 µM.

Question: For WPRFHSSVFHTHGGGK(biotin) [WH^biotin (WH peptide, …-GGG-K^biotin)], which Kd [5] is on record?
Answer: Its Kd is 22.7 µM.
